Reference: patent US7541020B2, “Aminoalkyl glucosaminide phosphate compounds and their use as adjuvants and immunoeffectors” (priority 1997, dated 2009)
“And” between values parts separate entries of the source, which are not always exact repeats. Equal values may be shown once. Read-outs that look alike come from different tables or passages of the source.

Tests used:
influenza A/HK/68 [1] = tested on: influenza A/HK/68; set-up: species or system ICR mice; settings: mouse, in vivo
influenza A/HK/68 [2] = tested on: influenza A/HK/68; set-up: species or system ICR mice; settings: mouse, in vivo; remark: listed apart in the source
influenza A/HK/68 [3] = assay type: in vivo, ICR mice; settings: mouse, in vivo
[4] = Fever response in rabbits (pyrogenicity); assay type: in vivo; settings: 10 ug/kg; cumulative rise ≥1.5 degree in three rabbits is considered pyrogenic
Method: The AGP compounds were also evaluated for their tendency to induce a fever response in rabbits. Each compound was formulated in 10% (v/v) ethanol/water solution at 100 mg/ml, then diluted with D5W to the desired concentration. The material was injected at 3 ml/kg body weight into 3 rabbits. The rise in core temperature of the rabbits was recorded.

E.G7 (OVA) cells = settings: s.c. 25 μg OVA in AGP preparation, spleen cells 21 days later
influenza A/HK/68 [5] = assay: Second intranasal influenza vaccine experiment with aqueous AGP and MPL formulations: vaginal, tracheal wash and serum titers, protection; assay type: in vivo, BABL/c mice
TNF-α = assay: Cytokine induction in human whole blood ex vivo culture: TNF-α (ELISA); assay type: cell-based; settings: 4 hr
Outline: (§1)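 Compounds in 10% EtOH-water added at 1:10 to human whole blood, 4 hr at 37° C with rotation; RPMI-treated controls. After PBS dilution and centrifugation, supernatant TNF-α and IL-1β measured by ELISA.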

IL-1β = assay: Cytokine induction in human whole blood ex vivo culture: IL-1β (ELISA); assay type: cell-based; settings: 4 hr
Outline: as §1

influenza A/HK/68 [6] = assay type: in vivo, BALB/c mice; settings: mouse, in vivo
[7] = tested on: hepatitis B surface antigen (HBsAg); assay: Serum anti-HBsAg antibody titers after intranasal HBsAg + AGP-AF (ELISA); assay type: in vivo, BALB/c mice; settings: for Anti HBsAg Titer^−1 IgG1 / Anti HBsAg Titer^−1 IgG2a: K = 10^3
tetanus toxoid [8] = settings: mouse, in vivo, sc
[9] = tested on: hepatitis B surface antigen (HBsAg); assay: Vaginal wash anti-HBsAg antibody after intranasal HBsAg + AGP-AF; assay type: in vivo, BALB/c mice; settings: 10 days after the booster immunization; intranasal HBsAg + 10 μg AGP-AF
Source text: Vaginal samples were collected 10 days after the booster immunization and assayed for anti-HBsAg antibody.

influenza A/HK/68 [10] = settings: mouse, in vivo
[11] = tested on: hepatitis B surface antigen (HBsAg); assay: Anti-HBsAg antibody titer with AGP-SE (ELISA plates coated with HBsAg or p72 peptide); settings: sera day 28 post 2°, 25 μg AGP-SE
tetanus toxoid [12] = settings: mouse, in vivo
[13] = day 22 post 2°, HBsAg + 10 μg AGP-AF intranasally
[14] = serum, day 21 post 3°, intranasal HBsAg + 10 μg AGP-AF
[15] = ELISA plates coated with p72 peptide

3-Hydroxy-(S)-2-[(R)-3-nonanoyloxytetradecanoylamino]propyl 2-Deoxy-4-O-phosphono-2-[(R)-3-nonanoyloxytetradecanoylamino]-3-O-[(R)-3-nonanoyloxytetradecanoyl]-β-D-glucopyranoside Triethylammonium Salt [B7]
Anti-influenza Titer^−1 Total IgG (influenza A/HK/68 [1]): 200
IgG Titer-1 post 1° (influenza A/HK/68 [2]): 3200
IgG Titer-1 post 2° (influenza A/HK/68 [2]): >102,400
Percent Survival post 1° (influenza A/HK/68 [2]): 60%
Percent Survival post 2° (influenza A/HK/68 [2]): 60%
Titer−1 IgG1 (influenza A/HK/68 [3]): 3200
Titer−1 IgG2a (influenza A/HK/68 [3]): 100
Titer−1 IgG2b (influenza A/HK/68 [3]): 1600
Titer−1 Total IgG (influenza A/HK/68 [3]): 3200
PYROGENICITY Total Rise ° C., 3 rabbits [4]: 4 °C
% Cytotoxicity (E.G7 (OVA) cells; E:T 12.5:1): 29%
% Cytotoxicity (E.G7 (OVA) cells; E:T 25:1): 44%
% Cytotoxicity (E.G7 (OVA) cells; E:T 50:1): 57%

3-O-deacylated monophosphoryl lipid A [MPL®, reference compound]
mucosal adjuvant activity (in words) (influenza A/HK/68 [5]; administered intranasally with influenza vaccine, vaginal and tracheal washes): act as mucosal adjuvants causing the production of IgA at two mucosal sites

4-Hydroxy-(S)-2-[(R)-3-decanoyloxytetradecanoyl]butyl 2-Deoxy-4-O-phosphono-2-[(R)-3-decanoyloxytetradecanoylamino]-3-O-[(R)-3-decanoyltetradecanoyl]-β-D-glucopyranoside Triethylammonium Salt [B10]
TNF-α (TNF-α; Dosage 1000 ng/ml, Table 15): 73 pg/mL
TNF-α (TNF-α; Dosage 5000 ng/ml, Table 15): 127 pg/mL
TNF-α (TNF-α; Dosage 10,000 ng/ml, Table 15): 207 pg/mL
Anti-influenza Titer^−1 Total IgG (influenza A/HK/68 [1]): 1600
Percent Survival (influenza A/HK/68 [1]): 40%
IgG Titer-1 post 1° (influenza A/HK/68 [2]): 1600
IgG Titer-1 post 2° (influenza A/HK/68 [2]): 25,600
Percent Survival post 1° (influenza A/HK/68 [2]): 60%
Percent Survival post 2° (influenza A/HK/68 [2]): 90%
PYROGENICITY Total Rise ° C., 3 rabbits [4]: 5.8 °C
% Cytotoxicity (E.G7 (OVA) cells; E:T 12.5:1): 38%
% Cytotoxicity (E.G7 (OVA) cells; E:T 25:1): 56%
% Cytotoxicity (E.G7 (OVA) cells; E:T 50:1): 65%
IL-1β (IL-1β; Dosage 1000 ng/ml, Table 15): 17 pg/mL
IL-1β (IL-1β; Dosage 5000 ng/ml, Table 15): 61 pg/mL
IL-1β (IL-1β; Dosage 10,000 ng/ml, Table 15): 43 pg/mL
Anti-influenza Titer^−1 IgG1 (influenza A/HK/68 [6]): 400
Anti-influenza Titer^−1 IgG2a (influenza A/HK/68 [6]): 400
Anti-influenza Titer^−1 IgG2b (influenza A/HK/68 [6]): 400
Anti-influenza Titer^−1 Total IgG (influenza A/HK/68 [6]): 400
Percent Survival (influenza A/HK/68 [6]): 62.5%

4-[(R)-3-Tetradecanoyloxytetradecanoylamino]butyl 2-Deoxy-4-O-phosphono-3-O-[(R)-3-tetradecanoyoxytetradecanoyl]-2-[(R)-3-tetradecanoyloxytetradecanoylamino])-β-D-glucopyranoside Triethylammonium Salt [B22]
Anti HBsAg Titer^−1 IgA [7, 13]: 1,600
Anti HBsAg Titer^−1 IgG1 [7, 13]: 256K
Anti HBsAg Titer^−1 IgG2a [7, 13]: 64K
Anti HBsAg Titer^−1 IgG1 [7, 14]: 500K
Anti HBsAg Titer^−1 IgG2a [7, 14]: 500K
Anti HBsAg Titer^−1 IgA [7, 14]: 12,800
Anti-tetanus toxoid IgG1 T/C (tetanus toxoid [8]): 18.4
Anti-tetanus toxoid IgG1 Titer (tetanus toxoid [8]): 27,400
Anti-tetanus toxoid IgG2a T/C (tetanus toxoid [8]): 345.8
Anti-tetanus toxoid IgG2a Titer (tetanus toxoid [8]): 5,187
Anti-tetanus toxoid IgG2b T/C (tetanus toxoid [8]): 59.6
Anti-tetanus toxoid IgG2b Titer (tetanus toxoid [8]): 3,160
Anti-tetanus toxoid IgM T/C (tetanus toxoid [8]): 0.8
Anti-tetanus toxoid IgM Titer (tetanus toxoid [8]): 440
Anti-tetanus toxoid Total Ig T/C (tetanus toxoid [8]): 60.0
Anti-tetanus toxoid Total Ig Titer (tetanus toxoid [8]): 19,050
Vaginal Wash Anti-HBsAg Titer^−1 IgA [9]: 800
Vaginal Wash Anti-HBsAg Titer^−1 IgG [9]: 100
Percent Survival (influenza A/HK/68 [10]): 40%
Titer−1 IgG1 (influenza A/HK/68 [10]): 100
Titer−1 IgG2a (influenza A/HK/68 [10]): 3200
Titer−1 IgG2b (influenza A/HK/68 [10]): 200
Titer−1 Total IgG (influenza A/HK/68 [10]): 3200
Anti-HBsAg Titer^−1 HBsAg IgG1 ([11]; ELISA plates coated with HBsAg): 1024K
Anti-HBsAg Titer^−1 HBsAg IgG2a ([11]; ELISA plates coated with HBsAg): 1024K
Anti-HBsAg Titer^−1 p72-Peptide IgG1 [11, 15]: 128K
Anti-HBsAg Titer^−1 p72-Peptide IgG2a [11, 15]: 128K
Anti-Tetanus Toxoid Titer^−1 Fecal Extract IgG (tetanus toxoid [12]): 25 and 50
Anti-Tetanus Toxoid Titer^−1 Vaginal Wash IgG (tetanus toxoid [12]): 400 and 800

N-[(R)-3-Hexanoyloxytetradecanoyl]-O-[2-deoxy-4-O-phosphono-2-[(R)-3-hexanoyloxytetradecanoylamino]-3-O-[(R)-3-hexanoyloxytetradecanoyl]-α-D-glucopyranosyl]-L-serine Triethylammonium Salt [B34]
PYROGENICITY Total Rise ° C., 3 rabbits [4]: 2.8 °C
Mucosal IgA Response TW (influenza A/HK/68 [5]; mouse, in vivo): <4.6
Mucosal IgA Response VW (influenza A/HK/68 [5]; mouse, in vivo): <4.6
Percent Protection (influenza A/HK/68 [5]; mouse, in vivo): 0%
Serum IgG Titers (influenza A/HK/68 [5]; mouse, in vivo): 8.4

N-[(R)-3-decanoyloxytetradecanoyl]-O-[2-deoxy-4-O-phosphono-2-[(R)-3-decanoyloxytetradecanoylamino]-3-O-[(R)-3-decanoyloxytetradecanoyl]-β-D-glucopyranosyl]-D-serine Triethylammonium Salt [B14]
TNF-α (TNF-α; Dosage 500 ng/ml, Table 17): 49 pg/mL
TNF-α (TNF-α; Dosage 1000 ng/ml, Table 16): 56 pg/mL
TNF-α (TNF-α; Dosage 1000 ng/ml, Table 17): 51 pg/mL
TNF-α (TNF-α; Dosage 5000 ng/ml, Table 16): 120 pg/mL
TNF-α (TNF-α; Dosage 5000 ng/ml, Table 17): 87 pg/mL
TNF-α (TNF-α; Dosage 10,000 ng/ml, Table 16): 249 pg/mL
TNF-α (TNF-α; Dosage 10,000 ng/ml, Table 17): 114 pg/mL
Anti-influenza Titer^−1 Total IgG (influenza A/HK/68 [1]): 6400
Percent Survival (influenza A/HK/68 [1]): 44%
IgG Titer-1 post 1° (influenza A/HK/68 [2]): 800
IgG Titer-1 post 2° (influenza A/HK/68 [2]): 51,200
Percent Survival post 1° (influenza A/HK/68 [2]): 33%
Percent Survival post 2° (influenza A/HK/68 [2]): 70%
Percent Survival (influenza A/HK/68 [3]): 30%
Titer^−1 IgG1 (influenza A/HK/68 [3]): 1600
Titer^−1 IgG2a (influenza A/HK/68 [3]): 100
Titer^−1 IgG2b (influenza A/HK/68 [3]): 400
Titer^−1 Total IgG (influenza A/HK/68 [3]): 800
% Cytotoxicity (E.G7 (OVA) cells; E:T 12.5:1): 25%
% Cytotoxicity (E.G7 (OVA) cells; E:T 25:1): 36%
% Cytotoxicity (E.G7 (OVA) cells; E:T 50:1): 45%
IL-1β (IL-1β; Dosage 500 ng/ml, Table 17): 19.9 pg/mL
IL-1β (IL-1β; Dosage 1000 ng/ml, Table 16): 46 pg/mL
IL-1β (IL-1β; Dosage 1000 ng/ml, Table 17): 10.0 pg/mL
IL-1β (IL-1β; Dosage 5000 ng/ml, Table 16): 71 pg/mL
IL-1β (IL-1β; Dosage 5000 ng/ml, Table 17): 19.0 pg/mL
IL-1β (IL-1β; Dosage 10,000 ng/ml, Table 16): 91 pg/mL
IL-1β (IL-1β; Dosage 10,000 ng/ml, Table 17): 24.6 pg/mL
Anti-influenza Titer^−1 IgG1 (influenza A/HK/68 [6]): 6400
Anti-influenza Titer^−1 IgG2a (influenza A/HK/68 [6]): 3200
Anti-influenza Titer^−1 IgG2b (influenza A/HK/68 [6]): 6400
Anti-influenza Titer^−1 Total IgG (influenza A/HK/68 [6]): 3200
Percent Survival (influenza A/HK/68 [6]): 87.5%
